Measured values taken from patent US11583556B2, “Modified cells and methods of therapy” (Regents of the University of Minnesota, priority 2015, dated 2023).

The substances below were run on CTLA4 (assay: Validation of gRNAs in HEK293T cells, Surveyor digest and densitometry, CTLA4 site). Details: CTLA4 target gene site, 3 days.
Assay type: cell-based, human
Procedure: (§1) HEK293T cells were plated out at a density of 1×10^5 cells per well in a 24 well plate. 150 uL of Opti-MEM medium was combined with 1.5 ug of gRNA plasmid, 1.5 ug of Cas9 plasmid. Another 150 uL of Opti-MEM medium was combined with 5 ul of Lipofectamine 2000 Transfection reagent (Invitrogen). The solutions were combined together and incubated for 15 minutes at room temperature. The DNA-lipid complex was added dropwise to wells of the 24 well plate. Cells were incubated for 3 days at 37° C. and genomic DNA was collected using the GeneJET Genomic DNA Purification Kit (Thermo Scientific). Activity of the gRNAs was quantified by a Surveyor Digest, gel electrophoresis, and densitometry (FIG. 60 and FIG. 61) (Guschin, D. Y., et al., “A Rapid and General Assay for Monitoring Endogenous Gene Modification,” Methods in Molecular Biology, 649: 247-256 (2010)).
(§2) The efficiencies of Cas9 in creating double strand break (DSB) with the assistance of different gRNA sequences were listed in Table 7. The percentage numbers in Table 7 indicated the percent of gene modifications in the sample.

Substance | efficiency of Cas9/gRNA pair in creating double strand break (percent of gene modifications) [%]
CTLA4 gRNA#1: guide RNA to CTLA4; sense oligo SEQ ID 47 CACCGCCGGGTGACAGTGCTTCGGC | 40.96
CTLA4 gRNA#5: guide RNA to CTLA4; sense oligo SEQ ID 55 CACCGCCGCACAGACTTCAGTCACC | 15.90
CTLA4 gRNA#2: guide RNA to CTLA4; sense oligo SEQ ID 49 CACCGTGCGGCAACCTACATGATG | 56.10
CTLA4 gRNA#4: guide RNA to CTLA4; sense oligo SEQ ID 53 CACCGAGGTTCACTTGATTTCCAC | 40.13
CTLA4 gRNA#6: guide RNA to CTLA4; sense oligo SEQ ID 57 CACCGCTGGCGATGCCTCGGCTGC | 36.93
CTLA4 gRNA#3: guide RNA to CTLA4; sense oligo SEQ ID 51 CACCGCTAGATGATTCCATCTGCAC | 39.33

What follows are substances tested on AAVS1 (assay: Validation of gRNAs in HEK293T cells, Surveyor digest and densitometry, AAVS1 site). Details: AAVS1 target gene site, 3 days.
Assay type: cell-based, human
Procedure: as §1
(§3) The percentage numbers in Table 7 indicated the percent of gene modifications in the sample.

Substance | efficiency of Cas9/gRNA pair in creating double strand break (percent of gene modifications) [%]
AAVS1 gRNA#5: guide RNA to AAVS1; sense oligo SEQ ID 27 CACCGCCGGCCCTGGGAATATAAGG | 27.55
AAVS1 gRNA#2: guide RNA to AAVS1; sense oligo SEQ ID 21 CACCGACCCCACAGTGGGGCCACTA | 27.10
AAVS1 gRNA#6: guide RNA to AAVS1; sense oligo SEQ ID 29 CACCGCGGGCCCCTATGTCCACTTC | 39.62
AAVS1 gRNA#1: guide RNA to AAVS1; sense oligo SEQ ID 19 CACCGTGGGGGTTAGACCCAATATC | 32.99

Each substance was assayed on HPRT (assay: Validation of gRNAs in HEK293T cells, Surveyor digest and densitometry, HPRT site). Details: HPRT target gene site, 3 days.
Assay type: cell-based, human
Procedure: as §1, §2

Substance | efficiency of Cas9/gRNA pair in creating double strand break (percent of gene modifications)
HPRT gRNA#5: guide RNA to HPRT; sense oligo SEQ ID 13 CACCGTGTTTCAATGAGAGCATTAC | <1%
HPRT gRNA#3: guide RNA to HPRT; sense oligo SEQ ID 9 CACCGACAAAAAAATTAGCCGGGTG | <1%
HPRT gRNA#1: guide RNA to HPRT; sense oligo SEQ ID 5 CACCGCACGTGTGAACCAACCCGCC | 27.85% ^
HPRT gRNA#6: guide RNA to HPRT; sense oligo SEQ ID 15 CACCGGTCTCGAACTCCTGAGCTC | <5%
HPRT gRNA#4: guide RNA to HPRT; sense oligo SEQ ID 11 CACCGTAAATTTCTCTGATAGACTA | <5%
HPRT gRNA#2: guide RNA to HPRT; sense oligo SEQ ID 7 CACCGAAACAACAGGCCGGGCGGGT | 30.04% ^

These substances were tested on PD1 (assay: Validation of gRNAs in HEK293T cells, Surveyor digest and densitometry, PD1 site). Details: PD1 target gene site, 3 days.
Assay type: cell-based, human
Procedure: as §1, §3

Substance | efficiency of Cas9/gRNA pair in creating double strand break (percent of gene modifications) [%]
PD1 gRNA#6: guide RNA to PD-1; sense oligo SEQ ID 43 CACCGACGGAAGCGGCAGTCCTGGC | 25.91
PD1 gRNA#4: guide RNA to PD-1; sense oligo SEQ ID 39 CACCGAGGCGGCCAGCTTGTCCGTC | 20.87
PD1 gRNA#2: guide RNA to PD-1; sense oligo SEQ ID 35 CACCGCCTGCTCGTGGTGACCGAAG | >60
PD1 gRNA#5: guide RNA to PD-1; sense oligo SEQ ID 41 CACCGCGTTGGGCAGTTGTGTGACA | 30.60
PD1 gRNA#1: guide RNA to PD-1; sense oligo SEQ ID 33 CACCGCGGAGAGCTTCGTGCTAAAC | 10.83

What follows are substances tested on CCR5 (assay: Validation of gRNAs in HEK293T cells, Surveyor digest and densitometry, CCR5 site). Details: CCR5 target gene site, 3 days.
Assay type: cell-based, human
Procedure: as §1, §2

Substance | efficiency of Cas9/gRNA pair in creating double strand break (percent of gene modifications) [%]
CCR5 gRNA#5: guide RNA to CCR5; sense oligo SEQ ID 69 CACCGATCTGGTAAAGATGATTCC | 36.07
CCR5 gRNA#1: guide RNA to CCR5; sense oligo SEQ ID 61 CACCGACAATGTGTCAACTCTTGAC | 21.47
CCR5 gRNA#2: guide RNA to CCR5; sense oligo SEQ ID 63 CACCGTCATCCTCCTGACAATCGAT | >60
CCR5 gRNA#3: guide RNA to CCR5; sense oligo SEQ ID 65 CACCGGTGACAAGTGTGATCACTT | 55.98
CCR5 gRNA#6: guide RNA to CCR5; sense oligo SEQ ID 71 CACCGTTGTATTTCCAAAGTCCCAC | 33.17
CCR5 gRNA#4: guide RNA to CCR5; sense oligo SEQ ID 67 CACCGACACAGCATGGACGACAGCC | 45.99
